How the values were obtained:
[1] = target: Ribosomal protein S6 kinase alpha-4 (Homo sapiens) (UniProt O75676); experiment: Selectivity interaction (Ambit KINOMEscan and KiNATiv profiling in Jurkat cells) EUB0000090b RPS6KA4; assay type: cell-based; details: at 1 µM
[2] = target: T1, Phosphatidylinositol 5-phosphate 4-kinase type-2 beta (Homo sapiens) (UniProt P78356); experiment: Selectivity interaction (Ambit KINOMEscan and KiNATiv profiling in Jurkat cells) EUB0000090b PIP4K2B; assay type: cell-based; details: at 1 µM
T1 sequence (whole entry): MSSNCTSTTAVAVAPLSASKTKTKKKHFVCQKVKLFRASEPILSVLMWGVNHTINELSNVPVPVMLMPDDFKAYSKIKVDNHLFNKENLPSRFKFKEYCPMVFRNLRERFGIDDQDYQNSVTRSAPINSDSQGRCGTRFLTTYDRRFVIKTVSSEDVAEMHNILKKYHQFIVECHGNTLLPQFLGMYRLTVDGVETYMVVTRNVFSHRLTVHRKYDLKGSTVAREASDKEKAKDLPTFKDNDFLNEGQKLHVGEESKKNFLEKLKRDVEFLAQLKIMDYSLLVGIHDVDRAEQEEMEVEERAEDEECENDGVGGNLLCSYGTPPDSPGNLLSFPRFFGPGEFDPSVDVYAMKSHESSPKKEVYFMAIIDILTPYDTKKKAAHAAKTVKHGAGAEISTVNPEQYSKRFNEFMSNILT

[3] = target: T2, Protein kinase C iota type (Homo sapiens) (UniProt P41743); experiment: Selectivity interaction (ActivX KiNativ screen (kinase selectivity in THP-1 cell lysates)) EUB0000639a PRKCI; assay type: subcellular; details: lysate, at 0.2 µM
T2 sequence (whole entry): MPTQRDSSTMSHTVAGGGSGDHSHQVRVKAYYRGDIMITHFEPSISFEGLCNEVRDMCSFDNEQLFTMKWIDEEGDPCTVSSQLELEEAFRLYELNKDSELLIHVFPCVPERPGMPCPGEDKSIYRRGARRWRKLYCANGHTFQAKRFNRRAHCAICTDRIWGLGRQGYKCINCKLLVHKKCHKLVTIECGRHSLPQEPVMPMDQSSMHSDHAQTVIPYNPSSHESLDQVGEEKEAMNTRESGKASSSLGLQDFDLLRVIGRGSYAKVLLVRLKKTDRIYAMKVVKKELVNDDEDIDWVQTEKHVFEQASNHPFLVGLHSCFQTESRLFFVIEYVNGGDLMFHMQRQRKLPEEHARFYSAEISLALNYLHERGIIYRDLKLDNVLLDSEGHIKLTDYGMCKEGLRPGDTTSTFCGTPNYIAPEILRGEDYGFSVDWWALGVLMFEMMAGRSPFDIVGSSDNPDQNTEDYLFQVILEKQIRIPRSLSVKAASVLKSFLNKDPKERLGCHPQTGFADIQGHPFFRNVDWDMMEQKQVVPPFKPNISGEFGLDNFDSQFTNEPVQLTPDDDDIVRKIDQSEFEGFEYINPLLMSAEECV

[4] = target: T3, Serine/threonine-protein kinase ULK3 (Homo sapiens) (UniProt Q6PHR2); experiment: Selectivity interaction (KinomeScan (DiscoverX)) EUB0001550a ULK3; details: at 1 µM
T3 sequence (whole entry): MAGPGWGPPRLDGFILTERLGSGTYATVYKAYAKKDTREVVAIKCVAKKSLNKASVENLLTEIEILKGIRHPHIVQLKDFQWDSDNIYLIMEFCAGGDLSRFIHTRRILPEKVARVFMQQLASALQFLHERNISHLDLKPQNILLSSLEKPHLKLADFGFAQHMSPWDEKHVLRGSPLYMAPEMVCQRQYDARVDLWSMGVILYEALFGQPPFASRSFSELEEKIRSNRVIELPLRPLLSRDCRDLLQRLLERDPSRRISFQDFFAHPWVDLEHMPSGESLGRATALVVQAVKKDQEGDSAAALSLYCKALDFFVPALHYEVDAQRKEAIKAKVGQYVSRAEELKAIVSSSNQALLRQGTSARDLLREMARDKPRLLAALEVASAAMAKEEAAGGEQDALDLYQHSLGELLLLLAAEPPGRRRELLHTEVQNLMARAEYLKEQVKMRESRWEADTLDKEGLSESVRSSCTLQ

[5] = target: Mitogen-activated protein kinase 9 (Homo sapiens, UniProt P45984); experiment: Selectivity interaction (LanthaScreen Eu Kinase Binding Assay) EUB0001632a MAPK9; details: at 10 µM
[6] = target: Tyrosine-protein kinase Fer (Homo sapiens) (UniProt P16591); experiment: Selectivity interaction (Kinase panel (Z-LYTE Assay)) EUB0001632a FER; details: at 10 µM
[7] = target: Serine/threonine-protein kinase PRP4 homolog (Homo sapiens) (UniProt Q13523); experiment: Selectivity interaction (KinomeScan (DiscoverX)) EUB0000229b PRPF4B; details: at 10 µM
[8] = tested on: Proto-oncogene tyrosine-protein kinase receptor Ret (Homo sapiens), P07949 [V804L]; experiment: (§1) Selectivity interaction (KinomeScan (DiscoverX)) EUB0001079a RET; details: at 1 µM
[9] = tested on: Proto-oncogene tyrosine-protein kinase receptor Ret (Homo sapiens), P07949 [M918T]; experiment: as §1; details: at 1 µM
[10] = target: Proto-oncogene tyrosine-protein kinase receptor Ret (Homo sapiens, UniProt P07949); experiment: as §1; details: at 1 µM
[11] = tested on: Proto-oncogene tyrosine-protein kinase receptor Ret (Homo sapiens), P07949 [V804M]; experiment: as §1; details: at 1 µM
[12] = target: Phosphatidylinositol 4-phosphate 3-kinase C2 domain-containing subunit beta (Homo sapiens) (UniProt O00750); experiment: Selectivity interaction (ProQinase) EUB0000171b PIK3C2B
[13] = target: CDK6/Cyclin D (Homo sapiens) (UniProt P24385+P30281+Q00534+P30279); experiment: Selectivity interaction (Upstate Kinase Profiler service (Millipore)) EUB0000056c CDK6; assay type: protein-complex assay; details: at 1 µM
[14] = target: Macrophage-stimulating protein receptor (Homo sapiens, UniProt Q04912); experiment: Selectivity interaction (SelectScreen profiling (Invitrogen)) EUB0000607a MST1R; details: at 2 µM
[15] = target: Ribosomal protein S6 kinase alpha-2 (Homo sapiens) (UniProt Q15349); experiment: Selectivity interaction (KinomeScan (DiscoverX)) EUB0000666a RPS6KA2; details: at 10 µM

Sequence of Phosphatidylinositol 4-phosphate 3-kinase C2 domain-containing subunit beta (Homo sapiens) (O00750 whole entry, the tested form may be a part): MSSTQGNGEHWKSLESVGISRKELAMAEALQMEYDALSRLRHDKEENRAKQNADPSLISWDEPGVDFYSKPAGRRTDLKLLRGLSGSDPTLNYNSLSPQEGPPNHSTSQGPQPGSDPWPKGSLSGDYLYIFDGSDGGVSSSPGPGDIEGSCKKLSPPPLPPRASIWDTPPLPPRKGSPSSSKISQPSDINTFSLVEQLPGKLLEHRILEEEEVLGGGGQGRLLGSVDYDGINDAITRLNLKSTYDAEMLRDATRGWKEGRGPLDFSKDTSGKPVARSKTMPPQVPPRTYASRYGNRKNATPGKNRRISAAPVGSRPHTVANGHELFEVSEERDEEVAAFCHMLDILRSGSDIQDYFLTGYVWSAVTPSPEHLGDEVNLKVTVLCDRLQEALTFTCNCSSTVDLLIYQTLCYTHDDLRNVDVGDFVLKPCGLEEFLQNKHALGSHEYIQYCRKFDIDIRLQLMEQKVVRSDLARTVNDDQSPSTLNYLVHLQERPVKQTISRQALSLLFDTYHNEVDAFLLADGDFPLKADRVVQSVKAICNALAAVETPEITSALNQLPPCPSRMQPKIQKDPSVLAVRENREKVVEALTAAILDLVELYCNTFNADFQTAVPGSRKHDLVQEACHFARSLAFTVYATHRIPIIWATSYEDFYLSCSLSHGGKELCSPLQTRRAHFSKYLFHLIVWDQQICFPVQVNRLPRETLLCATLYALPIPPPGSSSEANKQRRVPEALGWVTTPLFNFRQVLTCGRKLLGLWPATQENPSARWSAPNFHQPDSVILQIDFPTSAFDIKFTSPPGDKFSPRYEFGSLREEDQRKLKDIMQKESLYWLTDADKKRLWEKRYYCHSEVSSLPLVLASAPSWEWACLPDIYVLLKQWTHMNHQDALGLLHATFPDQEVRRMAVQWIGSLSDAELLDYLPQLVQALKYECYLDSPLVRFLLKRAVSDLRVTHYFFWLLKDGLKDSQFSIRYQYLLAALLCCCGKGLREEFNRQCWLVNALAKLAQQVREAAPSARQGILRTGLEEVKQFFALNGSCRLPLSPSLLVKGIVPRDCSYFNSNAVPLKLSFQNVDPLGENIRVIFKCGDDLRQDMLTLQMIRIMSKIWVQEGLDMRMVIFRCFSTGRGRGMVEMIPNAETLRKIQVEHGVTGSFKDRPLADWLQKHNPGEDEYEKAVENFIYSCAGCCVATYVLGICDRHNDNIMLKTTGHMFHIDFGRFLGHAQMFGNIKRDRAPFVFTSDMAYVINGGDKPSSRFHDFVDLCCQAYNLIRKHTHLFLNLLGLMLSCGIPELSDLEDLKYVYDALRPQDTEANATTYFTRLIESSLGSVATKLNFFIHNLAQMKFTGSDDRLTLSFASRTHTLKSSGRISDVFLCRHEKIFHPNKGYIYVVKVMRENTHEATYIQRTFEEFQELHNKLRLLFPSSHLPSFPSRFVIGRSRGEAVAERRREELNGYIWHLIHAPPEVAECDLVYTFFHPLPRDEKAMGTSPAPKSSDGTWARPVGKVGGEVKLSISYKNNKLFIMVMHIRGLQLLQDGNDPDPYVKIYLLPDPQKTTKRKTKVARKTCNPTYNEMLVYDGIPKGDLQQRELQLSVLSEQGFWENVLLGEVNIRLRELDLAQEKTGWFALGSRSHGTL
Sequence of Mitogen-activated protein kinase 9 (P45984 whole entry, looked up): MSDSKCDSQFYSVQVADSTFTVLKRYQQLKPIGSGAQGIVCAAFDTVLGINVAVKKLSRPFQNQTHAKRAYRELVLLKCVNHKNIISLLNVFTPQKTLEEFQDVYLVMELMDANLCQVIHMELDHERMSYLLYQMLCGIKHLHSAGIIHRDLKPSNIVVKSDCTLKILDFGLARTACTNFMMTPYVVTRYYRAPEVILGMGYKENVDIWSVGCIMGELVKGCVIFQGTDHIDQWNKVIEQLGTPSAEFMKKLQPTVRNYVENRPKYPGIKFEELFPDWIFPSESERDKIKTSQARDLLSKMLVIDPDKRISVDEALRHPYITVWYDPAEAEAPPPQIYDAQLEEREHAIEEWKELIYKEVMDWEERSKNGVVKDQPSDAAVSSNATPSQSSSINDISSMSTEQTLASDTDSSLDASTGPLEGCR
Sequence of Serine/threonine-protein kinase PRP4 homolog (Homo sapiens) (Q13523 whole entry): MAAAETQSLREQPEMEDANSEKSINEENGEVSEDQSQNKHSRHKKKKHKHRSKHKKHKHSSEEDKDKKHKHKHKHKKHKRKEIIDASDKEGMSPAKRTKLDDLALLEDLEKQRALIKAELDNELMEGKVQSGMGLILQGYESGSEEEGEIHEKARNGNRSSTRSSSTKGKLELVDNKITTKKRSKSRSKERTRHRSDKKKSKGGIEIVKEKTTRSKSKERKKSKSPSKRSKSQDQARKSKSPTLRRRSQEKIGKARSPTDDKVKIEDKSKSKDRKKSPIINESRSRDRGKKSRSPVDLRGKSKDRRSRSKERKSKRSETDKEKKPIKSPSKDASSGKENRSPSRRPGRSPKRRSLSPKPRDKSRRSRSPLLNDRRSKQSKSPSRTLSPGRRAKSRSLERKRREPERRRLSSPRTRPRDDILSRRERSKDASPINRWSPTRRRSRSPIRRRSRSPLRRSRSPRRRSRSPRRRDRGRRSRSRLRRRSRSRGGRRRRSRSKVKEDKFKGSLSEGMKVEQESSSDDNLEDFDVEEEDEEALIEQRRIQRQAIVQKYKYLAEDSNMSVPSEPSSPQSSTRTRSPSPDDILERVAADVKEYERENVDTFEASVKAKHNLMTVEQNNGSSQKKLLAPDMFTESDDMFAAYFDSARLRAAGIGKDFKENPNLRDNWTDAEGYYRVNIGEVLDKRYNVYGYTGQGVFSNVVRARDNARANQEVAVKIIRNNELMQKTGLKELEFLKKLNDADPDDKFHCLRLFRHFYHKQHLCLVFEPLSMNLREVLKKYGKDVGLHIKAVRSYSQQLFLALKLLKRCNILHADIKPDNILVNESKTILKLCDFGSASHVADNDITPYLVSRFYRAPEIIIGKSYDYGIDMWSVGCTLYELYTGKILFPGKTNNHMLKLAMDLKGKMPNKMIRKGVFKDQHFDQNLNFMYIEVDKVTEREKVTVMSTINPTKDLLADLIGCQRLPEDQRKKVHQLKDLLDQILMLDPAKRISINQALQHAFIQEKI
Sequence of CDK6/Cyclin D (Homo sapiens) (P24385 whole entry, looked up): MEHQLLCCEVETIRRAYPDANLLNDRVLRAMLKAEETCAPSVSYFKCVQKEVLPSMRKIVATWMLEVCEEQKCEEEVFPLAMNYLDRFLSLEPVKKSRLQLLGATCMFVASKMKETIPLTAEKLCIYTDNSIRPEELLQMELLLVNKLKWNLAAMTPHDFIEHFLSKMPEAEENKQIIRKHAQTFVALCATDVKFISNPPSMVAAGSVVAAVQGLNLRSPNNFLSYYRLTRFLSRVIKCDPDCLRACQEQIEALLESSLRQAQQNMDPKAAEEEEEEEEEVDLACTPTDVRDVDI
Sequence of CDK6/Cyclin D (Homo sapiens) (P30279 whole entry, looked up): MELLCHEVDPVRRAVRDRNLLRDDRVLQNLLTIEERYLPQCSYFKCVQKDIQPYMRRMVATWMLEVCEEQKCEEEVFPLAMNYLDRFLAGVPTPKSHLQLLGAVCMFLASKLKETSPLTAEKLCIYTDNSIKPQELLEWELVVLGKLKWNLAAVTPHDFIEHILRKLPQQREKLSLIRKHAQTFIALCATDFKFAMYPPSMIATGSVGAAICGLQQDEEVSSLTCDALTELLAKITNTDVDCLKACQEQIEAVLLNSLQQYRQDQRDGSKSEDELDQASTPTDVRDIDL
Sequence of CDK6/Cyclin D (Homo sapiens) (P30281 whole entry, looked up): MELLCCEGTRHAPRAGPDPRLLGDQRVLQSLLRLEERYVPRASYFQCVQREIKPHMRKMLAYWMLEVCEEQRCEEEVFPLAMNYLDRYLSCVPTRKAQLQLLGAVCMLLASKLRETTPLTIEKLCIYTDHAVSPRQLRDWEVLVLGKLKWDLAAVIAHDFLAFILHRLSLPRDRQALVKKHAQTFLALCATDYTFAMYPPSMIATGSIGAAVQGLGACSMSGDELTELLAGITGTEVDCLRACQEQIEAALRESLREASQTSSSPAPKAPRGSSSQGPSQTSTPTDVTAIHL
Sequence of CDK6/Cyclin D (Homo sapiens) (Q00534 whole entry, looked up): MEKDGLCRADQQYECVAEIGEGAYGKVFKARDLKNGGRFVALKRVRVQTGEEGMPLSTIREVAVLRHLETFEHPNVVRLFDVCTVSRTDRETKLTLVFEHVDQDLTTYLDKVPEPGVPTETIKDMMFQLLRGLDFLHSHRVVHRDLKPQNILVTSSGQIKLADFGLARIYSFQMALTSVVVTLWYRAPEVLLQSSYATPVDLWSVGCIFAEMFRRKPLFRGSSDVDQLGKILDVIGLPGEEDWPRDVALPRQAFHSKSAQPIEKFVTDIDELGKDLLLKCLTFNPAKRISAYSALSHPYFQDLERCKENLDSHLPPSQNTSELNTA
Sequence of Ribosomal protein S6 kinase alpha-4 (Homo sapiens) (O75676 whole entry, looked up): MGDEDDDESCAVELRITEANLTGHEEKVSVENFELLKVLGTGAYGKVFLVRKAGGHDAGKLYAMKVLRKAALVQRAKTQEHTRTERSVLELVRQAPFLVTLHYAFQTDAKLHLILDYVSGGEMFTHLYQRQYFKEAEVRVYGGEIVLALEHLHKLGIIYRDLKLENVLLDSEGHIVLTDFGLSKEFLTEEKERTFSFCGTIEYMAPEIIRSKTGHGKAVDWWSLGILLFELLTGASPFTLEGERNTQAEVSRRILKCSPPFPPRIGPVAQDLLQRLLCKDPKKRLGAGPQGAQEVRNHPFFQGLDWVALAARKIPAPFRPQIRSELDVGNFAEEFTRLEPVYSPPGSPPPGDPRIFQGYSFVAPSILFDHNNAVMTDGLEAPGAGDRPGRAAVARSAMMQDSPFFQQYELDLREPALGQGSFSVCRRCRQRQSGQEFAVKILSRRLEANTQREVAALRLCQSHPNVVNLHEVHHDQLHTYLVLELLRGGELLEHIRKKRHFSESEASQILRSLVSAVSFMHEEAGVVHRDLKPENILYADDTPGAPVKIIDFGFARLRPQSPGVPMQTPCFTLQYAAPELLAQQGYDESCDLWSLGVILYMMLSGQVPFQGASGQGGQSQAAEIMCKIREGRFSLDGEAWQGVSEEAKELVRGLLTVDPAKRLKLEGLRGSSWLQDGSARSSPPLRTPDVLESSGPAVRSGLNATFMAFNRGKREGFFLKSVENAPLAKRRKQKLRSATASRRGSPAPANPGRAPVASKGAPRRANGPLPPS

In the case of `CN(C)C/C=C/C(=O)Nc1ccc(C(=O)N2CCCC(Nc3ncc(Cl)c(-c4c[nH]c5ccccc45)n3)C2)cc1` (stereo unspecified), the % of control [1] is reported as 100% and the % of control [2] is reported as 83%.

For `CC[C@@H]1[C@H](F)C(=O)N[C@@H]1COc1nccc2cc(C(N)=O)c(OC)cc12` [ZIMLOVISERTIB], the % of inhibition [3] was 0%.

`CN(C)CC#Cc1ccc2[nH]c3c(c2c1)-c1nc(N)ncc1CCC3` showed a % of control [4] of 11%.

Work on `Cn1cc(-n2cnc3c(NCc4nc5cc(Cl)c(Cl)cc5[nH]4)nc(N4CCOCC4)nc32)cn1` yielded a % of inhibition [5] of -21.2% and a % of control [6] of 3.17%.

In the case of `COc1cc(N(C)c2ccnc3ccc(C(F)(F)F)cc23)cc(OC)c1OC`, the % binding [7] is reported as 100%.

For `Nc1cnc(N2CCc3cc(S(=O)(=O)Nc4c(F)cc(Cl)cc4F)cc(N4CCCC4=O)c32)nc1` [TP-020n], the % of control [8] was 99%, the % of control [9] was 100% and the % of control [10] was 89%. The % of control [11] was 100%.

With `C=CC(=O)Nc1cccc(C(=O)Nc2ccc(Nc3cc(-c4[nH]c(SC)nc4C)ccn3)cc2)c1` the % of control ([12]; at 1 µM) was 132% and the % of control ([12]; at 5 µM) was 133%.

`Cc1ccc(-c2ccc3c(ccc4sc5c(c43)NC[C@@H](C)NC5=O)n2)cn1` gave a % of inhibition [13] of 5%.

`CNC(=O)Nc1ccc(-c2nc(N3CC4CCC(C3)O4)c3cnn(C4CCC5(CC4)OCCO5)c3n2)cc1` was tested, and the % of inhibition [14] was -1%.

For `O=C(NOC[C@H](O)CO)c1ccc(F)c(F)c1Nc1ccc(I)cc1F`, the % of control [15] was 100%.

From ChEMBL document CHEMBL5465560, “Selectivity Literature for EUbOPEN Chemogenomic Library” (2024)
